Consider eleven molecules from patent publication US20020127182A1, “Paramagnetic metal ion-based macrocylic magnetization transfer contrast agents and method of use” (Board of Regents, The University of Texas System, priority 2000, published 2002).

Holding throughout (assay type): physicochemical
Data set [1] is described as follows: Proton chemical shift of bound water of Ln(1)^3+ complexes relative to bulk water (1H NMR). The note with it: relative to bulk water at 0 ppm. The source says:
As further illustrated in Table 1, the proton chemical shifts of bound water in these lanthanide-macrocylic complexes, δ, relative to bulk water, at 0 ppm are generally highly shifted, either more than 6 ppm downfield or upfield (i.e., ±6 ppm or more), depending upon the properties of the central lanthanide ions. At 1.5 Tesla (T), a magnetic field strength presently used by many commercial MRI scanners, the exchange limit regimes, Δω•τM, of Eu(1)^3+, Tb(1)^3+, Dy(1)^3+, and Ho(1)^3+ are all greater than 1. At higher fields, however, such as 4.7 T and 11.75 T, more lanthanide complexes have exchange limit regimes greater than 1, with Δω•τM increasing as field strength increases. Therefore, favorable MT contrast effects are available for a broad range of lanthanide-macrocylic complexes over a broad range of magnetic field strengths. […]

A short description of data set [2]: Bound water lifetime τM^298 of Ln(1)^3+ complexes by fitting temperature dependent 17O NMR bound water line widths; exchange limit regime Δω•τM calculated. The note with it: for τM (bound water lifetime): Ln(1)^3+ complexes, 298 K. On the procedure:
A first experiment, examined the life times at 298° K, τM^298, of water molecules bound to various lanthanide-macrocylic complexes of the present invention, and having the general formula, Ln(1)^3+, where the four pendent arms R, R′, R″ and R″′ are all ethyl-acetamidoacetate (i.e., LnDOTA-4AmCE^3+), as depicted below: [drawing 4]
(§1) Individual τM^298 values were obtained by fitting the temperature dependent ^17O NMR bound water line widths according to standard exchange theory. […] Because the bulk water ^17O resonance of Yb(1) solution was relatively narrow at all temperatures, no attempt was made to determine τM^298 for this complex based on the ^17O NMR line width data from bulk water. However, a fit to the bound-water ^1H NMR line width gave a τM^298 of 5.8 μs for Yb(1), consistent with the trend shown in FIG. 3. Moreover, ^1H NMR line width fitting gave very similar results for those systems for which the bound water is directly observable.
As further illustrated in Table 1, the proton chemical shifts of bound water in these lanthanide-macrocylic complexes, δ, relative to bulk water, at 0 ppm are generally highly shifted, either more than 6 ppm downfield or upfield (i.e., ±6 ppm or more), depending upon the properties of the central lanthanide ions. At 1.5 Tesla (T), a magnetic field strength presently used by many commercial MRI scanners, the exchange limit regimes, Δω•τM, of Eu(1)^3+, Tb(1)^3+, Dy(1)^3+, and Ho(1)^3+ are all greater than 1. At higher fields, however, such as 4.7 T and 11.75 T, more lanthanide complexes have exchange limit regimes greater than 1, with Δω•τM increasing as field strength increases. Therefore, favorable MT contrast effects are available for a broad range of lanthanide-macrocylic complexes over a broad range of magnetic field strengths.

Data set [3] is described as follows: MT profiles (Z-profiles, CEST profiles) of Ln(1)^3+ complexes at 4.7 T. Conditions: for bound water position at which saturating RF pulse is directed: bulk water at 0 ppm, aqueous 62.5 mM, neutral pH, about 22° C. On the procedure: In a second experiment, MT profiles, also known as Z-profiles or CEST profiles, were obtained for lanthanide-macrocylic complexes of the general formula Ln(1)^3+. FIGS. 4-7 show representative spectra in the absence of saturation (bulk water peak at 0 ppm truncated to make the bound water peaks more visible) and MT profiles for Eu(1)^3+, Pr(1)^3+, Nd(1)^3+ and Yb(1)^3+ complexes, respectively, all measured at 4.7 T. All experiments were conducted using aqueous 62.5 mM Ln(1)^3+ adjusted to neutral pH and about 22° C., using an saturation duration time of 1 s, RF power of 16 db, and a 2.5 cm surface coil. […] Among these three complexes, Eu(1)^3+, shown in FIG. 4, had the greatest effect when the saturating pulse was centered at about 50 ppm (arrow): about a 60% decrease in the magnetization of bulk water, Ms, as compared to the magnetization of bulk water in the absence of a saturating pulse, Mo. Importantly, as indicated by a Ms/Mo of about 100%, when the counter-position (i.e., −50 ppm) was saturated, there was no distortion in the bulk water signal. Of course when the saturation pulse is directed to 0 ppm (arrow) there is no signal and therefore Ms/Mo is about 0%.

Data set [4] in a line: MT MR imaging of vial phantom with Ln(1)^3+ complexes at 4.7 T. Conditions: saturating bound water, 62.5 mM, neutral pH. On the procedure:
A third series of experiments was performed to examine the ability of lanthanide-macrocylic complexes of the general formula Ln(1)^3+ to enhance MRI contrast by MT. […] The inner vial contains 62.5 mM Eu(1)^3+ or Nd(1)^3+ at neutral pH, while the outer vial is pure water. T1-weighted spin-echo images (TR/TE=500/18 ms, 256×256 data matrix) were obtained at about 22° C. and a field strength of 4.7 T. MT was achieved by applying RF irradiation for 1 s, with a power of 16 db by using a 2.5 cm surface coil. […] The inner vial contains 62.5 mM Nd(1)^3+ at neutral pH, while the outer vial is pure water. The irradiation duration time was 2 s, with a power of 41 db by using a 2.5 cm surface coil.
These levels of contrast are much better than expected for diamagnetic CAs where the resonance signal of the NH or OH group undergoing chemical exchange is only a few ppm away from the resonance signal of bulk water.

The nature of data set [5]: τM^298 from fit to bound-water 1H NMR line width.
From the text: as §1

The nature of data set [6]: 1H NMR spectra of Ln(9)^3+ complexes, exchangeable amide protons. The source says:
For certain Ln(9)^3+ complexes, for example, with Ln equal to Yb or Tm, the bound water molecules are ^1H NMR invisible probably due to the fast exchange between the bound water and the bulk water. […] Unfortunately, the NMR signal was invisible, probably due to its fast exchange with the bulk water. However, the eight exchangeable amide protons present as two resonance peaks with equivalent intensity, at −14.5 (Ha) and −17.7 (Hb) ppm, respectively, are visible.

SMILES strings stand for the structures.

For `CCOC(=O)CNC(=O)CN1CCN(CC(=O)NCC(=O)OCC)CCN(CC(=O)NCC(=O)OCC)CCN(CC(=O)NCC(=O)OCC)CC1.[Tb+3]` [Tb(1)^3+], in data set [1], the “δ, proton chemical shift of bound water” value is −600 ppm. The “Δω●τM (exchange limit regime)” value in data set [2] (1.5 T, listed as Tb^3+) is 7.5; in data set [2] (4.7 T) it was 23.4; in data set [2] (11.75 T), 58.5. In addition, the “τM (bound water lifetime)” value in data set [2] is 31 μs.

For `CCOC(=O)CNC(=O)CN1CCN(CC(=O)NCC(=O)OCC)CCN(CC(=O)NCC(=O)OCC)CCN(CC(=O)NCC(=O)OCC)CC1.[Ho+3]` [Ho(1)^3+], in data set [1], the “δ, proton chemical shift of bound water” value is −360 ppm. The “Δω●τM (exchange limit regime)” value is given as 2.8 in data set [2] (1.5 T, listed as Ho^3+); 8.6 in data set [2] (4.7 T); 21.5 in data set [2] (11.75 T). The “τM (bound water lifetime)” value in data set [2] was 19 μs.

In the case of `CCOC(=O)CNC(=O)CN1CCN(CC(=O)NCC(=O)OCC)CCN(CC(=O)NCC(=O)OCC)CCN(CC(=O)NCC(=O)OCC)CC1.[Eu+3]` [Eu(1)^3+], in data set [1], the “δ, proton chemical shift of bound water” value amounted to 50 ppm. For the same molecule, the “Δω●τM (exchange limit regime)” value in data set [2] (1.5 T, listed as Eu^3+) was 7.7; in data set [2] (4.7 T) it was 24.0; in data set [2] (11.75 T), 60.0. For the same molecule, the “τM (bound water lifetime)” value in data set [2] is recorded as 382 μs. The “bound water position at which saturating RF pulse is directed” value in data set [3] is given as “+50 ppm”. Besides, the “decrease in the magnetization of bulk water, Ms, compared to Mo” value in data set [3] (saturating pulse at about 50 ppm, 62.5 mM, 1 s, 16 db) was ~60%. In addition, the “Ms/Mo when counter-position saturated” value in data set [3] (saturation at −50 ppm, 62.5 mM) is on record as “about 100%”. Also, the “decrease in the bulk water signal in the inner vials (MT images)” value in data set [4] is ~80%.

As for `CCOC(=O)CNC(=O)CN1CCN(CC(=O)NCC(=O)OCC)CCN(CC(=O)NCC(=O)OCC)CCN(CC(=O)NCC(=O)OCC)CC1.[Dy+3]` [Dy(1)^3+], the “δ, proton chemical shift of bound water” value in data set [1] is on record as −720 ppm. The “Δω●τM (exchange limit regime)” value in data set [2] (1.5 T, listed as Dy^3+) was 4.9; in data set [2] (4.7 T), 15.4; in data set [2] (11.75 T), 38.5. For the same molecule, the “τM (bound water lifetime)” value in data set [2] is listed as 17 μs.

In the case of `CCOC(=O)CNC(=O)CN1CCN(CC(=O)NCC(=O)OCC)CCN(CC(=O)NCC(=O)OCC)CCN(CC(=O)NCC(=O)OCC)CC1.[Er+3]` [Er(1)^3+], the “δ, proton chemical shift of bound water” value in data set [1] stood at 200 ppm. Also, the “Δω●τM (exchange limit regime)” value is given as 0.7 in data set [2] (1.5 T), 2.3 in data set [2] (4.7 T) and 5.7 in data set [2] (11.75 T). For the same molecule, the “τM (bound water lifetime)” value in data set [2] was 9 μs.

For `CCOC(=O)CNC(=O)CN1CCN(CC(=O)NCC(=O)OCC)CCN(CC(=O)NCC(=O)OCC)CCN(CC(=O)NCC(=O)OCC)CC1.[Yb+3]` [Yb(1)^3+], the “τM^298 of bound water” value in data set [5] turned out to be 5.8 μs. The “δ, proton chemical shift of bound water” value in data set [1] was found to be 200 ppm. Besides, the “Δω●τM (exchange limit regime)” value in data set [2] (1.5 T) is listed as 0.2; in data set [2] (4.7 T), 0.5; in data set [2] (11.75 T) it was 1.9. Moreover, the “τM (bound water lifetime)” value in data set [2] is listed as 3 μs.

On to `CCOC(=O)CNC(=O)CN1CCN(CC(=O)NCC(=O)OCC)CCN(CC(=O)NCC(=O)OCC)CCN(CC(=O)NCC(=O)OCC)CC1.[Nd+3]` [Nd(1)^3+], for which, in data set [1], the “δ, proton chemical shift of bound water” value is given as −32 ppm. The “Δω●τM (exchange limit regime)” value is on record as 1.0 in data set [2] (1.5 T), 3.2 in data set [2] (4.7 T) and 8.0 in data set [2] (11.75 T). Moreover, in data set [2], the “τM (bound water lifetime)” value is 80 μs. Besides, in data set [4], the “decrease in the bulk water signal in the inner vials (MT images)” value was ~80%.

For the molecule `CCOC(=O)CNC(=O)CN1CCN(CC(=O)NCC(=O)OCC)CCN(CC(=O)NCC(=O)OCC)CCN(CC(=O)NCC(=O)OCC)CC1.[Sm+3]` [Sm(1)^3+], in data set [1], the “δ, proton chemical shift of bound water” value is on record as −4 ppm. Further, the “Δω●τM (exchange limit regime)” value is 0.5 in data set [2] (1.5 T), 1.6 in data set [2] (4.7 T) and 4.0 in data set [2] (11.75 T). Moreover, in data set [2], the “τM (bound water lifetime)” value was 320 μs.

As for `NC(=O)CN1CCN(CC(N)=O)CCN(CC(N)=O)CCN(CC(N)=O)CC1.[Tm+3]` [Tm(9)^3+], in data set [6], the “chemical shift of amide protons, first set (Ha)” value is listed as −42 ppm and the “chemical shift of amide protons, second set (Hb)” value is listed as −52 ppm.

For `CCOC(=O)CNC(=O)CN1CCN(CC(=O)NCC(=O)OCC)CCN(CC(=O)NCC(=O)OCC)CCN(CC(=O)NCC(=O)OCC)CC1.[Pr+3]` [Pr(1)^3+], the “δ, proton chemical shift of bound water” value in data set [1] is given as −60 ppm. Moreover, the “Δω●τM (exchange limit regime)” value in data set [2] (1.5 T) is recorded as 0.5; in data set [2] (4.7 T), 1.5; in data set [2] (11.75 T) it was 3.8. Besides, the “τM (bound water lifetime)” value in data set [2] is recorded as 20 μs. In addition, in data set [3], the “bound water position at which saturating RF pulse is directed” value was −45 ppm.

With `CCOC(=O)CNC(=O)CN1CCN(CC(=O)NCC(=O)OCC)CCN(CC(=O)NCC(=O)OCC)CCN(CC(=O)NCC(=O)OCC)CC1.[Tm+3]` [Tm(1)^3+], in data set [1], the “δ, proton chemical shift of bound water” value is 500 ppm. Moreover, the “Δω●τM (exchange limit regime)” value is on record as 0.6 in data set [2] (1.5 T), 1.9 in data set [2] (4.7 T) and 4.7 in data set [2] (11.75 T). In data set [2], the “τM (bound water lifetime)” value is recorded as 3 μs.
